Measured values from paper PMC5384453, “A multi-functional PEGylated gold(III) compound: potent anti-cancer properties and self-assembly into nanostructures for drug co-delivery” (Chemical Science, 2016).

Experiments:
HCT116 cells = test: Co-culture model of HCT116 and NCM460, Caspase-3/7 Green flow cytometry; assay type: cell-based, human; conditions: 24 h; for population percentage of apoptotic cells (Caspase-3/7 Green, corrected): HCT116 in co-culture with CMF2HC-stained NCM460, 2 μM
Procedure: (§1) This co-culture model treated with 1 for 24 h had 25.04 and 5.01% (Q2 and Q3 regions of Fig. S21a ^†; corrected) of HCT116 and NCM460 cells, respectively, undergoing apoptosis as determined by Caspase-3/7 Green Reagent staining and flow cytometric analysis (Fig. S21 ^†). This confirms the preferential induction of apoptosis by 1 of HCT116 cells over NCM460 cells in the co-culture model, regardless of the effect, if any, of the blue emissive CMF2HC dye.
(§2) atmosphere of 5% CO2. After reaching 80% confluency, the culture medium was
(§3) of 5% CO2 for 45 min. The solution was then removed. The stained NCM460 cells
(§4) the procedure described above.
(§5) right fore of BALB/c nude mice. When the tumor volume reached 70 mm3 after […]

NCM460 cells [1] = test: as above; assay type: cell-based, human; conditions: 24 h; for population percentage of apoptotic cells (Caspase-3/7 Green, corrected): CMF2HC-stained NCM460 in co-culture with HCT116, 2 μM
Procedure: as §1, §2, §3, §4, §5

NCM460 cells [2] = test: Time-dependent induction of apoptosis, Caspase-3/7 Green ReadyProbes fluorescence microscopy; assay type: cell-based, human; conditions: NCM460, 2 μM, Caspase-3/7 Green Reagent
Procedure: (§6) B from 20.1 to 25 min and returned to initial conditions and equilibrated for 3 minutes.
(§7) The flow rate was 0.4 mL/min and the injection volume was 2 µL. The UPLC-QTOF-MS chromatograms of 1, 3, 4 and solvent control in acetonitrile were also recorded for the interpretation of UPLC-QTOF-MS chromatograms of the cell lysate.
Cellular uptake experiments. HCT116, A2780 and A2780adr (2×10 5 cells), and MIHA and NCM460 (3.5×10 5 cells) cells were grown on 6-well plates at 37 °C under an atmosphere of 5% CO2 for 48 h. The culture medium was then removed, washed with PBS solution, and incubated with culture medium containing nanostructures of 1 […]
(§8) Au1a (2 µM; with 1 vol% DMSO). At a predetermined time, the culture medium was removed and washed with PBS solution for three times. […] An aliquot of the cell suspension was subjected to Bio-rad protein assay with a microtitre plate reader at the absorbance at 595 nm, using bovine serum albumin as the protein standard. […] The solution mixture was heated at 65 °C with shaking overnight, and the gold content was determined by ICP-MS. […]
(§9) then removed and washed with PBS solution. The cells were then incubated with culture medium containing nanostructures of 1 (2 µM) and CellEvent Caspase-3/7 Green ReadyProbes Reagent (30 µL), or Au1a (2 µM; with 1 vol% DMSO) and CellEvent Caspase-3/7 Green ReadyProbes Reagent (30 µL) at 37 °C under an atmosphere of 5% CO2. […]

[3] = Zeta potential measurement of nanostructures in PBS; assay type: physicochemical
Excerpt: On the other hand, the almost neutral zeta potentials of the nanostructures of 1 and 2 validated the presence of PEG pendant in the shell of the nanostructures. The identity of gold species in the core of the nanostructures was supported by the good contrast of the core in the TEM images (Fig. 1c and S3a ^†) and energy-dispersive X-ray (EDX) spectra (Fig. 1f). […]
(MIHA), human normal liver cells (L02) and human normal gliocyte cells (CHEM-5) were maintained in Dulbecco’s modified Eagle’s medium with 10 vol% fetal bovine serum, ʟ-glutamine (2 mM) and penicillin/streptomycin (100 U/mL). […]
TOF/TOF™ Analyzer using α-cyano-4-hydroxycinnamic acid with sodium trifluoroacetate as the matrix. […]
Premier quadrupole time-of-flight tandem mass spectrometer. […]
Ultra performance […]
liquid chromatography (UPLC) measurements were performed on a Waters
ACQUITY UPLC H-Class System equipped with a photodiode array for detection.
Elemental analyses were performed on the Carlo Erba 1106 elemental analyzer at the Institute of Chemistry, Chinese Academy of Sciences, Beijing, China. […]
Dynamic light scattering (DLS) and zeta potential measurements were performed

L02 = test: In vitro cytotoxicity, MTT assay; assay type: cell-based, human; conditions: 72 h
Procedure: (§10) page 7: The gold content of the nanocomposites was determined by dissolving the nanocomposites in conc. HNO3 / conc. HCl solution mixture (9:1, v/v; 30 µL), followed by ICP-MS analysis. […] The nanocomposite (10 µL) was dissolved in acetonitrile (90 µL), and subjected to gentle shaking overnight. The solution mixture was then dried under vacuum, and re- dispersed in 0.1 vol% formic acid in water/acetonitrile (7/3, v/v; 1 mL) solution mixture. […] The mobile phase was 0.1 vol% formic acid in water/acetonitrile (7:3, v/v) solution mixture. […] The cells were then treated with a serial concentration of gold(III) complexes and incubated at 37 °C under a 5% CO2 atmosphere for 72 h. […] After incubation for 72 h, MTT in PBS solution (5 mg/mL, 10 μL) was added to each well. The plates were incubated at 37 °C under a 5% CO2 atmosphere for another 4 h, and the cells were lysed by the addition of SDS solution (10%, w/w) with 0.01 M HCl (100 μL). After incubation in dark at 37 °C overnight, the cell viability after treatment was determined by a microtitre plate reader monitoring at the absorbance at 590 nm, P.7 page 8: which reflected the amount of blue formazan formed. IC50 values were then determined by CompuSyn S6 from three independent measurements. Study on the release of hydrolyzed product from 1 and 2 in aqueous buffer solutions by ICP-MS. […] At a predetermined time, an aliquot of solution was removed and dissolved in HNO3/HCl solution mixture (9:1, v/v; volume of aliquot: volume of acid mixture = 1:3). The solution mixture was heated at 65 °C with shaking overnight, and the gold content was determined by ICP-MS from three independent aliquots. […] 37 °C for 24 h. […] Analysis of cell lysate of HCT116 cells treated with complexes 1 and 3 by UPLC- QTOF-MS. […] All the cells were harvested, washed with PBS solution for three times and dispersed in ice-cold water. The cell suspension was then added to ice-cold acetonitrile (1:3, v/v), vortexed for 5 min, and centrifuged at 10,000 rpm at 4 °C. The supernatant was collected, dried under vacuum and the solid was re-dissolved in acetonitrile (HPLC grade) for UPLC- QTOF-MS experiments. The mobile phase was a mixture of 0.1% formic acid in water (phase A) and 0.1% formic acid in acetonitrile (phase B). […] P.46

CHEM-5 = test: In vitro cytotoxicity, MTT assay; assay type: cell-based, human; conditions: CHEM-5, MTT assay, 72 h
Procedure: as §10

A2780adr cells = test: Cellular uptake, gold content by ICP-MS; assay type: in vitro ADME, human; conditions: 2 μM, 37 °C
Procedure: The uptake of 1 and 3, and Au1a by cancer cells and non-tumorigenic cells was examined in terms of the gold content in the cell lysates using ICP-MS.
as §6, §7
Cellular uptake experiments. HCT116, A2780 and A2780adr (2×10 5 cells), and MIHA and NCM460 (3.5×10 5 cells) cells were grown on 6-well plates at 37 °C under an atmosphere of 5% CO2 for 48 h. […]
as §8, with “DMSO).” for “DMSO). At a predetermined time, the culture medium was removed and washed with PBS solution for three times.”
as §9

Molecule | population percentage of apoptotic cells (Caspase-3/7 Green, corrected) (HCT116 cells) [%] | cells undergoing apoptosis (Caspase-3/7 Green, corrected) (HCT116 cells; co-culture with HCT116 pre-treated with CMF2HC dye, HCT116 cells) [%] | population percentage of apoptotic cells (Caspase-3/7 Green, corrected) (NCM460 cells [1]) [%] | cells undergoing apoptosis (Caspase-3/7 Green, corrected) (NCM460 cells [1]; co-culture with HCT116 pre-treated with CMF2HC dye, NCM460 cells) [%] | incubation time at which induction of apoptosis was apparent (NCM460 cells [2]) | Zeta potential [3] | IC50 (L02) [µM] | IC50 (CHEM-5) [µM] | incubation time after which the amount in A2780adr cells decreases (A2780adr cells) [h]
[Au(TPP–COO–PEG5000–OCH3)]Cl [Compound 1] | 25.3 | 25.04 | 4.1 | 5.01 | no significant apoptosis | –0.1 ± 1.6 mV | 3.8 ± 0.1 | 11.3 ± 0.05 | –
[Au(TPP–CONH–PEG5000–OCH3)]Cl [Compound 2] | – | – | – | – | – | –0.7 ± 4.2 mV | – | – | –
COC(=O)c1ccc(C2=C3C=CC(=N3)C(c3ccccc3)=c3ccc4[n]3[Au+][n]3c(ccc32)C(c2ccccc2)=C2C=CC(=N2)C=4c2ccccc2)cc1.[Cl-] [Compound 3, [Au(TPP–COOCH3)]^+] | – | – | – | – | – | – | 0.2 ± 0.05 | 3.5 ± 0.03 | 0.75
C1=Cc2nc1c(-c1ccccc1)c1ccc([n-]1)c(-c1ccccc1)c1nc(c(-c3ccccc3)c3ccc([n-]3)c2-c2ccccc2)C=C1.[Au+3].[Cl-] [Au1a, [Au(TPP)]Cl, reference compound] | 54.6 | – | 29.3 | – | 20 h | – | – | – | 0.5
